This note sets out measurements from patent publication US20240270821A1, “GIP/GLP1/GCG TRI-RECEPTOR AGONISTS AND USES THEREOF” (priority 2023, published 2024).

Read-outs that look alike come from different tables or passages of the source. Starred links: 1 amine or outer side, 2 acyl side, 3 side chain; linkers in the order of their positions; H or OH if unused. Non-standard residues stand in square brackets, D forms with d. Residues, ends and D or L forms follow the SMILES beside them. Groups on a side chain read outwards from the residue. No end group written: not given here. *: point of attachment. C20 diacid = O=C(O)CCCCCCCCCCCCCCCCCCC(=O)*; C18 diacid = O=C(O)CCCCCCCCCCCCCCCCC(=O)*; Phe(4-CN) = N#Cc1ccc(C[C@H](N)C(=O)O)cc1; αMePhe(2-F) = C[C@](N)(Cc1ccccc1F)C(=O)O; γGlu = O=C(O)[C@H](CCC(=O)[*:2])N[*:1]; αMe4Pal = C[C@](N)(Cc1ccncc1)C(=O)O; αMeY = C[C@](N)(Cc1ccc(O)cc1)C(=O)O; 4Pal = N[C@@H](Cc1ccncc1)C(=O)O; αMeL = CC(C)C[C@](C)(N)C(=O)O; αMeS = C[C@](N)(CO)C(=O)O; Orn = NCCC[C@H](N)C(=O)O; AEEA = NCCOCCOCC(=O)O; Aib = CC(C)(N)C(=O)O

Common to all, as to type: cell-based
For experiment [1], the target named is human GcgR (Homo sapiens, UniProt P47871). As to the kind of experiment: Functional cAMP activity in the presence of 1% HSA. The settings on record: read-out: cAMP Rel EC50, hGcgR.
Experiment [2] addresses T1, hGIPR (Homo sapiens, UniProt P48546).
T1 sequence (P48546 22-466): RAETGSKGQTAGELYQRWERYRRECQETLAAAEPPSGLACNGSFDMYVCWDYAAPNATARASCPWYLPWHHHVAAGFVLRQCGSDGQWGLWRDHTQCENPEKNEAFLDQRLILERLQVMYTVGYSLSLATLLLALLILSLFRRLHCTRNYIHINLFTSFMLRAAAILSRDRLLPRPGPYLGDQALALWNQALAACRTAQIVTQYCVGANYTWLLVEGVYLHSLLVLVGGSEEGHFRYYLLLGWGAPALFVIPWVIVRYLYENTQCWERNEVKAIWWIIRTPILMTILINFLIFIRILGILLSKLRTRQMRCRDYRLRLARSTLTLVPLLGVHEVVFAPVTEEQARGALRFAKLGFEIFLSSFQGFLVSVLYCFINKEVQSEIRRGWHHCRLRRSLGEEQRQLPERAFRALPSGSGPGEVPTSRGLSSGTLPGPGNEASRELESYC
As to the kind of experiment: Functional cAMP activity in the presence of 1% HSA. The settings on record: read-out: cAMP Rel EC50, hGIPR.

In experiment [3] the target is T1, hGIPR. As to the kind of experiment: Functional cAMP activation in the presence of 0.1% casein (no HSA). The settings on record: read-out: Relative cAMP EC50, hGIPR.
The target of experiment [4] is hGcgR (Homo sapiens, UniProt P47871). The experiment is described as above. The settings on record: read-out: Relative cAMP EC50, hGcgR.
Experiment [5] has as its target T2, hGLP-1R (Homo sapiens, UniProt P43220). As to the kind of experiment: Functional cAMP activity in the presence of 1% HSA. The settings on record: read-out: cAMP Rel EC50, hGLP-1R.
In experiment [6] the target is T2, hGLP-1R. Kind of experiment: Functional cAMP activation in the presence of 0.1% casein (no HSA). The settings on record: read-out: Relative cAMP EC50, hGLP-1R.
[7] abbreviates: in the presence of 0.1% casein (no HSA), geometric mean.
Setting [8] is: 0.1% casein, no HSA, geometric mean.
[9] abbreviates: HEK-293 clonal cell line, 1% HSA, geometric mean of relative EC50.
Where [10] appears, read: in the presence of 0.1% casein (no HSA), geometric mean of relative EC50.
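Wherever Relative cAMP EC50, hGIPR is given: intracellular cAMP rise after 30 min at 37 °C read by HTRF against a standard curve, scaled between buffer alone (0%) and top control ligand concentration (100%), four-parameter fit.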
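Wherever Relative cAMP EC50, hGLP-1R is given: intracellular cAMP rise after 30 min at 37 °C read by HTRF, normalized between buffer only (0%) and maximal control ligand (100%), four-parameter variable-slope fit.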
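Wherever Relative cAMP EC50, hGcgR is given: intracellular cAMP rise after 30 min at 37 °C, read by HTRF against a cAMP standard curve, scaled from buffer only (0%) to maximal control ligand response (100%).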

T2 sequence (P43220 24-463): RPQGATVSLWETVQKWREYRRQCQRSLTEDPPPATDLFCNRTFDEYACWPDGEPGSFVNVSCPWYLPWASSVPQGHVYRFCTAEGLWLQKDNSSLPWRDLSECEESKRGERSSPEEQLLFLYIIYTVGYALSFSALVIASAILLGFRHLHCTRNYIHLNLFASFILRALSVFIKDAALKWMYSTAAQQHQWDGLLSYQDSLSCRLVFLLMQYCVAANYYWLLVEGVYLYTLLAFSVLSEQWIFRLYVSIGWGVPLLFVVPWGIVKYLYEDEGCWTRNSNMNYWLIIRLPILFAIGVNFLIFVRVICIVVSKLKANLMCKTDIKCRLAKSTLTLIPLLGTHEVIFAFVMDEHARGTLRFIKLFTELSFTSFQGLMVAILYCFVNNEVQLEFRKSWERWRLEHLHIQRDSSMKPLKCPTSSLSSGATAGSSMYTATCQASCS
Sequence of hGcgR (P47871 26-477): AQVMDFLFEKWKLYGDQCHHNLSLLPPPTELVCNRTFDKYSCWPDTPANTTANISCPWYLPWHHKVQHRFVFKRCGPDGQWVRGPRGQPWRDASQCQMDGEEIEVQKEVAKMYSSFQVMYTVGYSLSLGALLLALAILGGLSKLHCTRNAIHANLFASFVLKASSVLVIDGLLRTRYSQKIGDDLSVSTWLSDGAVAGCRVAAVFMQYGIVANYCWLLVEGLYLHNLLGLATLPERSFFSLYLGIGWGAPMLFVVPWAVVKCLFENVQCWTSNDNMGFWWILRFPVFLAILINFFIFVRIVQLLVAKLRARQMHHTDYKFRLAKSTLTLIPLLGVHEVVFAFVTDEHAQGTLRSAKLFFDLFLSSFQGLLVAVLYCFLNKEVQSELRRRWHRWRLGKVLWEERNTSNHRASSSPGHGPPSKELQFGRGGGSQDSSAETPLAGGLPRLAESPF
Sequence of human GcgR (P47871 26-477): as above

The term EC50 denotes the concentration that produces a half-maximal response. With `CC[C@H](C)[C@H](NC(=O)[C@H](Cc1ccccc1)NC(=O)[C@H](CCCN)NC(=O)C(C)(C)NC(=O)[C@H](CCC(N)=O)NC(=O)[C@H](C)NC(=O)[C@H](CCCCNC(=O)CC[C@H](NC(=O)CC[C@H](NC(=O)CCCCCCCCCCCCCCCCC(=O)O)C(=O)O)C(=O)O)NC(=O)[C@H](CCCN)NC(=O)[C@H](CC(=O)O)NC(=O)[C@H](CC(C)C)NC(=O)[C@](C)(CC(C)C)NC(=O)[C@@H](NC(=O)[C@H](CO)NC(=O)[C@H](Cc1ccncc1)NC(=O)[C@H](CC(=O)O)NC(=O)[C@H](CO)NC(=O)[C@@H](NC(=O)[C@](C)(Cc1ccccc1F)NC(=O)[C@@H](NC(=O)CNC(=O)[C@H](CCC(N)=O)NC(=O)C(C)(C)NC(=O)[C@@H](N)Cc1ccc(O)cc1)[C@@H](C)O)[C@@H](C)O)[C@@H](C)CC)C(=O)N[C@H](CCC(=O)O)C(=O)N[C@@](C)(Cc1ccc(O)cc1)C(=O)N[C@@H](CC(C)C)C(=O)N[C@@H](CC(C)C)C(=O)N[C@@H](CCC(=O)O)C(=O)NCC(=O)NCC(=O)N1CCC[C@H]1C(=O)N[C@@H](CO)C(=O)N[C@@H](CO)C(=O)NC(C)(C)C(=O)N[C@@H](CCC(=O)O)C(=O)N1CCC[C@H]1C(=O)N1CCC[C@H]1C(=O)N1CCC[C@H]1C(=O)N[C@@H](CCC(=O)O)C(N)=O` [Example 373] (H-Y[Aib]QGT[αMePhe(2-F)]TSD[4Pal]SI[αMeL]LD[Orn]K([γGlu-γGlu-C18 diacid])AQ[Aib][Orn]FI[dE][αMeY]LLEGGPSS[Aib]EPPPE-NH2), the concentration for a half-maximal effect (EC50) in experiment [1] was 666 nM; in experiment [2] it was 1.97 nM; in experiment [3] (setting [7]), 0.0183 nM; in experiment [4] (setting [7]) it was 4.48 nM; in experiment [5], 54.5 nM; in experiment [6] (setting [7]), 0.392 nM.
Turning to “H-Y[Aib]QGTFTSDYSI[αMeL]LDKQAAK([AEEA-AEEA-γGlu-C20 diacid])AFVEWLLA[Aib]GPSSGEPPPSEG-NH2 [Example 317]”, the EC50 is 1500 nM in experiment [1]; 62.8 nM in experiment [2]; 0.474 nM in experiment [3] (setting [7]); 2.42 nM in experiment [4] (setting [7]); 234 nM in experiment [5]; 1.32 nM in experiment [6] (setting [7]).
As for “H-Y[Aib]QGT[αMePhe(2-F)]TSD[4Pal][αMeS]I[αMeL]LD[Orn]K([AEEA-AEEA-γGlu-C18 diacid])AQ[Aib][Orn]FIEYLIEGGPSSGEPPPSEG-NH2 [Example 491]”, the EC50 stood at 159 nM in experiment [1]; 0.688 nM in experiment [2]; 0.0126 nM in experiment [3]; 1.58 nM in experiment [4]; 9.55 nM in experiment [5]; 0.17 nM in experiment [6].
As for “H-Y[Aib]QGT[αMePhe(2-F)]TSD[Phe(4-CN)]SKLLDKIAQK([AEEA-γGlu-C20 diacid])AFIEYLIEGGPSSGEPPPSGS-NH2 [Example 364]”, the EC50 in experiment [1] stood at 3190 nM; in experiment [2] it was 101 nM; in experiment [3] (setting [7]), 0.457 nM; in experiment [4] (setting [7]) it was 10.2 nM; in experiment [5], 260 nM; in experiment [6] (setting [7]) it was 1.1 nM.
In the case of “Y[Aib]QGT[αMePhe(2-F)]TSD[4Pal][αMeS]I[αMeL]LD[Orn]K([γGlu-γGlu-C18 diacid])AQ[Aib][Orn]FI[dE][αMeY]LQEGGPSSGEPPPEGTE-NH2 [Example 503]”, the EC50 in experiment [1] was determined as 233 nM; in experiment [2], 2.02 nM; in experiment [3], 0.0518 nM; in experiment [4], 3.98 nM; in experiment [5] it was 26.1 nM; in experiment [6], 0.525 nM.
As for “H-Y[Aib]QGT[αMePhe(2-F)]TSD[4Pal][αMeS]I[αMeL]LD[Orn][Orn]([AEEA-γGlu-C18 diacid])AQ[αMe4Pal]EFI[dE][αMeY]LIEGGPSSGAPPPSGGGE-NH2 [Example 1213]”, the half-maximal effective concentration (EC50) in experiment [1] came out at 268 nM; in experiment [2] it was 0.616 nM; in experiment [3] (setting [8]), 0.00721 nM; in experiment [4] (setting [8]), 1.69 nM; in experiment [5] it was 44 nM; in experiment [6] (setting [8]), 0.423 nM.
As to “Y[Aib]QGT[αMePhe(2-F)]TSD[4Pal][αMeS]I[αMeL]LD[Orn]K([γGlu-γGlu-C18 diacid])AQ[Aib][Orn]FI[dE][αMeY]LQEGGPSSGEPPPEGAEE-NH2 [Example 587]”, the EC50 in experiment [1] came to 252 nM; in experiment [2], 3.47 nM; in experiment [3], 0.0635 nM; in experiment [4], 5.38 nM; in experiment [5], 31.9 nM; in experiment [6] it was 0.611 nM.
On to “H-Y[Aib]QGT[αMePhe(2-F)]TSD[4Pal][αMeS]I[αMeL]LD[Orn]K([AEEA-γGlu-C18 diacid])AA[Aib]EFI[dE][αMeY]LVEGGPSSGAPPPSGS-NH2 [Example 693]”, for which the EC50 turned out to be 304 nM in experiment [1]; 1.1 nM in experiment [2]; 0.0104 nM in experiment [3]; 2.39 nM in experiment [4]; 18 nM in experiment [5]; 0.161 nM in experiment [6].
As for “Y[Aib]QGTFTSD[4Pal]SQ[αMeL]LDKK([dE-γGlu-dE-C18 diacid])AQ[αMe4Pal]AFIEYLIE[Aib]GPSSGAPPPSGSEE-NH2 [Example 931]”, the concentration for a half-maximal effect (EC50) worked out at 2300 nM in experiment [1]; 20.8 nM in experiment [2]; 0.256 nM in experiment [3] (setting [7]); 12.2 nM in experiment [4] (setting [7]); 878 nM in experiment [5]; 11.3 nM in experiment [6] (setting [7]).
With `CC[C@H](C)[C@H](NC(=O)[C@H](Cc1ccccc1)NC(=O)[C@H](C)NC(=O)C(C)(C)NC(=O)[C@H](CCC(N)=O)NC(=O)[C@H](C)NC(=O)[C@H](CCCCNC(=O)CC[C@H](NC(=O)CC[C@H](NC(=O)CCCCCCCCCCCCCCCCC(=O)O)C(=O)O)C(=O)O)NC(=O)[C@H](CCCCN)NC(=O)[C@H](CC(=O)O)NC(=O)[C@H](CC(C)C)NC(=O)[C@H](CC(C)C)NC(=O)[C@@H](NC(=O)[C@H](CO)NC(=O)[C@H](Cc1ccncc1)NC(=O)[C@H](CC(=O)O)NC(=O)[C@H](CO)NC(=O)[C@@H](NC(=O)[C@](C)(Cc1ccccc1F)NC(=O)[C@@H](NC(=O)CNC(=O)[C@H](CCC(N)=O)NC(=O)C(C)(C)NC(=O)[C@@H](N)Cc1ccc(O)cc1)[C@@H](C)O)[C@@H](C)O)[C@@H](C)CC)C(=O)N[C@@H](CCC(=O)O)C(=O)N[C@@H](Cc1ccc(O)cc1)C(=O)N[C@@H](CC(C)C)C(=O)N[C@@H](CCC(=O)O)C(=O)N[C@@H](CCC(=O)O)C(=O)NCC(=O)NCC(=O)N1CCC[C@H]1C(=O)N[C@@H](CO)C(=O)N[C@@H](CO)C(=O)NCC(=O)N[C@@H](C)C(=O)N1CCC[C@H]1C(=O)N1CCC[C@H]1C(=O)N1CCC[C@H]1C(=O)N[C@@H](CCC(=O)O)C(=O)NCC(=O)N[C@H](C(=O)NCC(=O)N[C@@H](CCC(=O)O)C(N)=O)[C@@H](C)O` [Example 660], the EC50 in experiment [1] came out at 455 nM; in experiment [2], 4.64 nM; in experiment [3], 0.0646 nM; in experiment [4], 7.38 nM; in experiment [5] it was 76.9 nM; in experiment [6] it was 1.27 nM.
For “H-Y[Aib]QGT[αMePhe(2-F)]TSD[4Pal]SI[αMeL]LDKK([γGlu-γGlu-C18 diacid])AQ[Aib][Orn]FIEYLSEGGPSSGEPPPEGSEE-NH2 [Example 651]”, the EC50 in experiment [1] (setting [9]) stood at 639 nM; in experiment [2] (setting [9]) it was 6.3 nM; in experiment [3] (setting [10]), 0.112 nM; in experiment [4] (setting [10]) it was 10.7 nM; in experiment [5] (setting [9]), 53.9 nM; in experiment [6] (setting [10]), 1.02 nM.
In the case of “H-Y[Aib]QGT[αMePhe(2-F)]TSD[4Pal][αMeS]I[αMeL]LD[Orn]K([AEEA-γGlu-C18 diacid])AQ[αMe4Pal]EFI[dE][αMeY]LIEGGPSSGAPPPEGGGEEE-NH2 [Example 1217]”, the concentration for a half-maximal effect (EC50) in experiment [1] was found to be 253 nM; in experiment [2], 1.06 nM; in experiment [3] (setting [8]) it was 0.0101 nM; in experiment [4] (setting [8]), 1.98 nM; in experiment [5] it was 62.7 nM; in experiment [6] (setting [8]), 0.751 nM.
As for “H-Y[Aib]QGTFTSD[4Pal]S[Orn][αMeL]LD[Orn]K([γGlu-γGlu-C18 diacid])AQ[αMe4Pal][Orn]FIE[αMeY]LIEGGPSSGAPPPSGSEE-NH2 [Example 974]”, the EC50 in experiment [1] came out at 870 nM; in experiment [2] it was 80.9 nM; in experiment [3] (setting [7]), 0.607 nM; in experiment [4] (setting [7]), 3.7 nM; in experiment [5], 283 nM; in experiment [6] (setting [7]), 1.57 nM.
